Assay results reported in patent publication US5677322A, “Maillard reaction inhibitor” (Otsuka Pharmaceutical Co., Ltd., priority 1993, dated 1997).

System: Lysozyme
Experiment: Inhibition of Maillard reaction: suppression of lysozyme dimer formation (lysozyme + fructose, SDS-PAGE)
Assay type: biochemical
Conditions: inhibition ratio of test compound to aminoguanidine (positive control); lysozyme 10 mg/ml, fructose 100 mM, 0.2M sodium phosphate pH 7.4, 37° C., 3 days; dimer amount by SDS-PAGE
Method: Lysozyme and fructose were dissolved in a buffer solution of 0.2M sodium phosphate (pH 7.4) to respectively give concentrations of 10 mg/ml and 100 mM. After incubating at 37° C. for 3 days, a definite amount of the mixture was taken out and electrophoresed with the use of SDS-PAGE. After the completion of the electrophoresis, the gel was stained with 0.2% Coomassie Brilliant Blue R-250 and the amount of the dimer thus formed was determined.
Each of the test compounds was added before the initiation of the incubation and the effect of suppressing the formation of the dimer was examined at various concentrations, whereby the IC50 value was obtained. As a positive control, aminoguanidine, which is a known glycation inhibitor, was employed and the inhibition ratio of the test compound to aminoguanidine (IC50 of aminoguanidine/IC50 of test compound) was calculated.

SMILES | IC50 of aminoguanidine/IC50 of test compound
CC(C)=NN=C1NC(=O)C(Cc2ccc(OCc3cccs3)cc2)N1 (stereo not drawn) [Test compound 36, 2-Isopropylidenehydrazono-5-[4-(2-thienylmethoxy)benzyl]imidazolidin-4-one] | 3.5
CC(C)=NN=C1NC(=O)C(Cc2c[nH]c3ccccc23)N1 (stereo not drawn) [Test compound 40, 5-(3-Indolylmethyl)-2-isopropylidenehydrazonoimidazolidin-4-one] | 2.6
CC(C)=NN=C1NC(=O)C(Cc2c[nH]c3ccc(O)cc23)N1 (stereo not drawn) [Test compound 41, 5-(5-Hydroxy-3-indolylmethyl)-2-isopropylidenehydrazonoimidazolidin-4-one] | 4.5
CC(C)=NN=C1NC(=O)C(Cc2ccc(O)c(O)c2)N1 (stereo not drawn) [Test compound 42, 5-(3,4-Dihydroxybenzyl)-2-isopropylidenehydrazonoimidazolidin-4-one] | 78.9
COC(=O)CC1NC(=NN=C(C)C)NC1=O (stereo not drawn) [Test compound 43, 2-Isopropylidenehydrazono-5-methoxycarbonylmethylimidazolidin-4-one] | 5.4
CC(C)=NN=C1NC(=O)C(CC(=O)OCc2ccccc2)N1 (stereo not drawn) [Test compound 44, 5-Benzyloxycarbonylmethyl-2-isopropylidenehydrazonoimidazolidin-4-one] | 5.2
CC(C)=NN=C1NC(=O)C(CC(=O)O)N1 (stereo not drawn) [Test compound 45, 5-Carboxymethyl-2-isopropylidenehydrazonoimidazolidin-4-one] | 4.8
CC(C)=NN=C1NC(=O)C(CC(=O)Nc2ccccc2)N1 (stereo not drawn) [Test compound 46, 2-Isopropylidenehydrazono-5-(N-phenylcarbamoylmethyl)imidazolidin-4-one] | 5.7
CC(C)=NN=C1NC(=O)C(Cc2ccc(OCc3cccnc3)cc2)S1 (stereo not drawn) [Test compound 48, 2-Isopropylidenehydrazono-5-[4-(3-pyridylmethoxy)benzyl]thiazolidin-4-one] | 11.0
CC(C)=NN=C1NC(=O)C(CC(=O)Nc2ccc(F)c(F)c2)S1 (stereo not drawn) [Test compound 49, 5-[N-(3,4-difluorophenyl)carbamoylmethyl]-2-isopropylidenehydrazonothiazolidin-4-one] | 7.4
CC(C)=NN=C1NC(=O)C(CC(=O)Nc2ccc(OCc3ccccc3)cc2)S1 (stereo not drawn) [Test compound 50, 5-[N-(4-benzyloxyphenyl)carbamoylmethyl]-2-isopropylidenehydrazonothiazolidin-4-one] | 0.3
CCOC(=O)CN1C(=O)C(CC(=O)Nc2ccccc2)SC1=NN=C(C)C (stereo not drawn) [Test compound 61, 3-Ethoxycarbonylmethyl-5-(N-phenylcarbamoylmethyl)-2-isopropylidenehydrazonothiazolin-4-one] | 0.91
CC(C)=NN=C1NC(=O)C(CCCCNC(=O)OCc2ccccc2)N1 (stereo not drawn) [Test compound 62, 5-(4-Benzyloxycarbonylaminobutyl)-2-isopropylidenehydrazonoimidazolidin-4-one] | 57
CC(C)=NN=C1NC(=O)C(CC(=O)N(C)c2ccccc2)S1 (stereo not drawn) [Test compound 65, 2-Isopropylidenehydrazono-5-(N-methyl-N-phenylcarbamoylmethyl)thiazolidin-4-one] | 6.8
CC(C)=NN=C1NC(=O)C(CC(=O)NCc2cccnc2)S1 (stereo not drawn) [Test compound 66, 2-Isopropylidenehydrazono-5-[N-(3-pyridylmethyl)carbamoylmethyl]thiazolidin-4-one] | 4.6
CC(C)=NN=C1NC(=O)C(CC(C)C)N1 (stereo not drawn) [Test compound 67, 2-Isopropylidenehydrazono-5-(2-methylpropyl)imidazolidin-4-one] | 2.6
CC(C)=NN=C1NC(=O)C(CC(=O)NCc2cccs2)S1 (stereo not drawn) [Test compound 70, 2-isopropylidenehydrazono-5-[N-(2-thienylmethyl)carbamoylmethyl]thiazolidin-4-one] | 36
CC(C)=NN=C1NC(=O)C(CC(=O)NC(C)c2ccccc2)S1 (stereo not drawn) [Test compound 72, 2-Isopropylidenehydrazono-5-[N-(1-phenylethyl)carbamoylmethyl]thiazolidin-4-one] | 7.0
CC(C)=NN=C1NC(=O)C(CC(=O)NC(C)c2ccccc2)N1 (stereo not drawn) [Test compound 73, 2-Isopropylidenehydrazono-5-[N-(1-phenylethyl)carbamoylmethyl]imidazolidin-4-one] | 1.3
O=C1NC(=NNS(=O)(=O)c2ccc(Br)cc2)NC1Cc1ccc(OCc2ccccc2)cc1 (stereo not drawn) [Test compound 75] | 1.5
O=C1NC(=NN=C2CCCC2)NC1Cc1ccc(OCc2ccccc2)cc1 (stereo not drawn) [Test compound 77, 2-Cyclopentylidenehydrazono-5-(4-benzyloxybenzyl)imidazolidin-4-one] | 2.2
CC(C)=NN=C1NC(=O)C(Cc2c[nH]cn2)N1 (stereo not drawn) [Test compound 78, 5-(4-Imidazolylmethyl)-2-isopropylidenehydrazonoimidazolidin-4-one] | 4.0
CC(C)=NN=C1NC(=O)C(CCC(=O)Nc2ccccc2)N1 (stereo not drawn) [Test compound 80, 2-Isopropylidenehydrazono-5-[2-(N-phenylcarbamoyl)ethyl]imidazolidin-4-one] | 3.1
NN=C1NC(=O)C(CC(=O)Nc2ccccc2)S1 (stereo not drawn) [Test compound 81, 2-Hydrazono-5-(N-phenylcarbamoylmethyl)thiazolidin-4-one] | 0.8
COc1ccc(NC(=O)CC2SC(=NN=C(C)C)NC2=O)cc1OC (stereo not drawn) [Test compound 90, 5-[N-(3,4-dimethoxyphenyl)carbamoylmethyl]-2-isopropylidenehydrazonothiazolidin-4-one] | 42
COC(=O)c1ccccc1NC(=O)CC1SC(=NN=C(C)C)NC1=O (stereo not drawn) [Test compound 93, 2-Isopropylidenehydrazono-5-[N-(2-methoxycarbonylphenyl)carbamoylmethyl]thiazolidin-4-one] | 26
COc1ccc(NC(=O)Cc2csc(NN=C(C)C)n2)cc1OC [Test compound 94, 4-[N-(3,4-dimethoxyphenyl)carbamoylmethyl]-2-isopropylidenehydrazinothiazole] | 33.7
CC(C)=NN=C1NC(=O)C(CC(=O)N[C@@H](Cc2c[nH]c3ccccc23)C(=O)O)S1 (stereo partly drawn) [Test compound 104, 5-{N-[1-carboxy-2-(3-indolyl)ethyl]carbamoylmethyl}-2-isopropylidenehydrazonothiazolidin-4-one] | 0.7
CC(C)=NN=C1NC(=O)C(CC(=O)Nc2c(C)cccc2C)S1 (stereo not drawn) [Test compound 112, 5-[N-(2,6-dimethylphenyl)carbamoylmethyl]-2-isopropylidenehydrazonothiazolidin-4-one] | 6.4
COc1cc(NC(=O)CC2SC(=NN=C(C)C)NC2=O)c(C(=O)O)cc1OC (stereo not drawn) [Test compound 114, 5-[N-(2-carboxy-4,5-dimethoxyphenyl)carbamoylmethyl]-2-isopropylidenehydrazonothiazolidin-4-one] | 5.4
